Species on record: Rattus norvegicus
Assay: Open TG-GATES - Regimen: Daily Repeat
Format: toxicity, organism-based, Sprague-Dawley
Design: regimen Daily Repeat, gender Male, age 6 weeks
Settings: in vivo, po, route gavage; for APTT / Bas / Eos / Fbg / Hb / Ht / Lym / MCH / MCHC / MCV / Mono / Neu / PT / Plat / RBC / Ret / WBC: tissue Blood; for KIDNEY_L / KIDNEY_R / KIDNEY_TOTAL: tissue Kidney; for LIVER: tissue Liver; for A/G / ALP / ALT / AST / BUN / CRE / Ca / Cl / DBIL / GLC / IP / K / LDH / Na / PL / RALB / TBIL / TC / TG / TP / gamma-GTP: tissue Plasma
[1] = 0 mg/kg, 72 h, dose level Control, time 3 day
[2] = 0 mg/kg, […], dose level Control, time 7 day
[3] = 0 mg/kg, […], dose level Control, time 14 day
[4] = 0 mg/kg, […], dose level Control, time 28 day
[5] = 30 mg/kg, 72 h, dose level Low, time 3 day
[6] = 30 mg/kg, […], dose level Low, time 7 day
[7] = 30 mg/kg, […], dose level Low, time 14 day
[8] = 30 mg/kg, […], dose level Low, time 28 day

## CCc1cc(C(N)=S)ccn1 [ETHIONAMIDE]
[1]
  TERMINAL_BW: 250.2 g
  APTT: 17.3 s
  Bas: 0%
  Eos: 1%
  Fbg: 262 mg/dL
  Hb: 13.2 g/dL
  Ht: 38.9%
  Lym: 73%
  MCH: 22 pg
  MCHC: 33.9%
  MCV: 64.7 fL
  Mono: 7.6%
  Neu: 18.6%
  PT: 11.9 s
  Plat: 128 x10_4/uL
  RBC: 601.2 x10_4/ul
  Ret: 12.2%
  WBC: 130.2 x10_2/uL
  KIDNEY_L: 1.1 g
  KIDNEY_R: 1.2 g
  KIDNEY_TOTAL: 2.3 g
  LIVER: 12.8 g
  A/G: 1.6
  ALP: 851.8 IU/L
  ALT: 39 IU/L
  AST: 62.8 IU/L
  BUN: 18.2 mg/dL
  CRE: 0.5 mg/dL
  Ca: 11 mg/dL
  Cl: 104.6 meq/L
  DBIL: 0.018 mg/dL
  GLC: 188.6 mg/dL
  IP: 7.3 mg/dL
  K: 4.6 meq/L
  LDH: 80.2 IU/L
  Na: 141 meq/L
  PL: 153 mg/dL
  RALB: 3.6 g/dL
  TBIL: 0.3 mg/dL
  TC: 80.6 mg/dL
  TG: 99 mg/dL
  TP: 5.8 g/dL
  gamma-GTP: 2 IU/L
[2]
  TERMINAL_BW: 270.2 g
  APTT: 17.5 s
  Bas: 0%
  Eos: 1%
  Fbg: 218.4 mg/dL
  Hb: 14.1 g/dL
  Ht: 41.5%
  Lym: 78%
  MCH: 21.4 pg
  MCHC: 34%
  MCV: 62.9 fL
  Mono: 8%
  Neu: 13%
  PT: 11.5 s
  Plat: 119.6 x10_4/uL
  RBC: 661.6 x10_4/ul
  Ret: 3.8%
  WBC: 107.3 x10_2/uL
  KIDNEY_L: 1.2 g
  KIDNEY_R: 1.3 g
  KIDNEY_TOTAL: 2.5 g
  LIVER: 13.2 g
  A/G: 1.6
  ALP: 836.8 IU/L
  ALT: 30.8 IU/L
  AST: 58.4 IU/L
  BUN: 18.4 mg/dL
  CRE: 0.4 mg/dL
  Ca: 10.2 mg/dL
  Cl: 103.8 meq/L
  DBIL: 0.064 mg/dL
  GLC: 195.6 mg/dL
  IP: 7.3 mg/dL
  K: 4.8 meq/L
  LDH: 74.6 IU/L
  Na: 140 meq/L
  PL: 153.4 mg/dL
  RALB: 3.7 g/dL
  TBIL: 0.3 mg/dL
  TC: 74.2 mg/dL
  TG: 129.4 mg/dL
  TP: 6 g/dL
  gamma-GTP: 2 IU/L
[3]
  TERMINAL_BW: 326.8 g
  APTT: 18.7 s
  Bas: 0%
  Eos: 1%
  Fbg: 215.4 mg/dL
  Hb: 14.8 g/dL
  Ht: 43.6%
  Lym: 79.6%
  MCH: 20.5 pg
  MCHC: 33.8%
  MCV: 60.8 fL
  Mono: 5.4%
  Neu: 14.2%
  PT: 12 s
  Plat: 120.6 x10_4/uL
  RBC: 718.8 x10_4/ul
  Ret: 4%
  WBC: 122.9 x10_2/uL
  KIDNEY_L: 1.3 g
  KIDNEY_R: 1.3 g
  KIDNEY_TOTAL: 2.7 g
  LIVER: 14.6 g
  A/G: 2.3
  ALP: 758.4 IU/L
  ALT: 32 IU/L
  AST: 62 IU/L
  BUN: 19.8 mg/dL
  CRE: 0.5 mg/dL
  Ca: 10.7 mg/dL
  Cl: 105.6 meq/L
  DBIL: 0.052 mg/dL
  GLC: 196.2 mg/dL
  IP: 6.8 mg/dL
  K: 4.7 meq/L
  LDH: 68.6 IU/L
  Na: 142 meq/L
  PL: 146.2 mg/dL
  RALB: 4.1 g/dL
  TBIL: 0.3 mg/dL
  TC: 68.8 mg/dL
  TG: 111.6 mg/dL
  TP: 5.8 g/dL
  gamma-GTP: 1.4 IU/L
[4]
  TERMINAL_BW: 416.8 g
  APTT: 18.6 s
  Bas: 0%
  Eos: 1.6%
  Fbg: 235.8 mg/dL
  Hb: 15.6 g/dL
  Ht: 46%
  Lym: 78.8%
  MCH: 19.6 pg
  MCHC: 34%
  MCV: 57.7 fL
  Mono: 6.6%
  Neu: 13.2%
  PT: 11.9 s
  Plat: 116.1 x10_4/uL
  RBC: 796.2 x10_4/ul
  Ret: 4.8%
  WBC: 122.5 x10_2/uL
  KIDNEY_L: 1.6 g
  KIDNEY_R: 1.6 g
  KIDNEY_TOTAL: 3.2 g
  LIVER: 17.7 g
  A/G: 1.8
  ALP: 523.4 IU/L
  ALT: 31.6 IU/L
  AST: 55.6 IU/L
  BUN: 21.2 mg/dL
  CRE: 0.6 mg/dL
  Ca: 10.2 mg/dL
  Cl: 104.4 meq/L
  DBIL: 0.02 mg/dL
  GLC: 199.4 mg/dL
  IP: 6 mg/dL
  K: 4.6 meq/L
  LDH: 74.8 IU/L
  Na: 140.4 meq/L
  PL: 141.2 mg/dL
  RALB: 4 g/dL
  TBIL: 0.3 mg/dL
  TC: 69 mg/dL
  TG: 157.2 mg/dL
  TP: 6.2 g/dL
  gamma-GTP: 1.8 IU/L
[5]
  TERMINAL_BW: 240.4 g
  APTT: 17.3 s
  Bas: 0%
  Eos: 1.6%
  Fbg: 217.6 mg/dL
  Hb: 14.2 g/dL
  Ht: 42.2%
  Lym: 75%
  MCH: 21 pg
  MCHC: 33.7%
  MCV: 62.3 fL
  Mono: 6.6%
  Neu: 17.4%
  PT: 11.5 s
  Plat: 130.1 x10_4/uL
  RBC: 677.6 x10_4/ul
  Ret: 9.8%
  WBC: 94.2 x10_2/uL
  KIDNEY_L: 1.1 g
  KIDNEY_R: 1.1 g
  KIDNEY_TOTAL: 2.2 g
  LIVER: 12.2 g
  A/G: 1.8
  ALP: 919.8 IU/L
  ALT: 34.4 IU/L
  AST: 60 IU/L
  BUN: 18 mg/dL
  CRE: 0.5 mg/dL
  Ca: 10.7 mg/dL
  Cl: 105.4 meq/L
  DBIL: 0.008 mg/dL
  GLC: 190.8 mg/dL
  IP: 7.2 mg/dL
  K: 4.6 meq/L
  LDH: 84 IU/L
  Na: 141.2 meq/L
  PL: 152.6 mg/dL
  RALB: 3.6 g/dL
  TBIL: 0.2 mg/dL
  TC: 80 mg/dL
  TG: 100.4 mg/dL
  TP: 5.6 g/dL
  gamma-GTP: 2 IU/L
[6]
  TERMINAL_BW: 280.6 g
  APTT: 16.9 s
  Bas: 0%
  Eos: 1%
  Fbg: 223.4 mg/dL
  Hb: 13.9 g/dL
  Ht: 41.1%
  Lym: 71%
  MCH: 21.2 pg
  MCHC: 34%
  MCV: 62.5 fL
  Mono: 9.4%
  Neu: 18.8%
  PT: 11.5 s
  Plat: 132.9 x10_4/uL
  RBC: 657.4 x10_4/ul
  Ret: 5%
  WBC: 131.2 x10_2/uL
  KIDNEY_L: 1.2 g
  KIDNEY_R: 1.2 g
  KIDNEY_TOTAL: 2.4 g
  LIVER: 13.8 g
  A/G: 1.6
  ALP: 859.6 IU/L
  ALT: 31.8 IU/L
  AST: 57.2 IU/L
  BUN: 20 mg/dL
  CRE: 0.4 mg/dL
  Ca: 10.4 mg/dL
  Cl: 103.2 meq/L
  DBIL: 0.078 mg/dL
  GLC: 197.2 mg/dL
  IP: 6.8 mg/dL
  K: 5 meq/L
  LDH: 95.2 IU/L
  Na: 139.2 meq/L
  PL: 143.6 mg/dL
  RALB: 3.6 g/dL
  TBIL: 0.3 mg/dL
  TC: 71.8 mg/dL
  TG: 119.6 mg/dL
  TP: 5.9 g/dL
  gamma-GTP: 2 IU/L
[7]
  TERMINAL_BW: 330.7 g
  APTT: 16.8 s
  Bas: 0%
  Eos: 1.2%
  Fbg: 223 mg/dL
  Hb: 14.9 g/dL
  Ht: 43.6%
  Lym: 76.4%
  MCH: 20.7 pg
  MCHC: 34.1%
  MCV: 60.6 fL
  Mono: 4%
  Neu: 18%
  PT: 11.8 s
  Plat: 125.2 x10_4/uL
  RBC: 720.8 x10_4/ul
  Ret: 4.5%
  WBC: 124.4 x10_2/uL
  KIDNEY_L: 1.4 g
  KIDNEY_R: 1.4 g
  KIDNEY_TOTAL: 2.7 g
  LIVER: 15 g
  A/G: 2.3
  ALP: 705.8 IU/L
[8]
  TERMINAL_BW: 406.9 g
  APTT: 17.4 s
  Bas: 0%
  Eos: 1.4%
  Fbg: 234.8 mg/dL
  Hb: 15.5 g/dL
  Ht: 45.4%
  Lym: 74%
  MCH: 19.8 pg
  MCHC: 34.2%
  MCV: 57.7 fL
  Mono: 6%
  Neu: 19.2%
  PT: 11.7 s
  Plat: 123.5 x10_4/uL
  RBC: 785.8 x10_4/ul
  Ret: 5.4%
  WBC: 154 x10_2/uL
  KIDNEY_L: 1.5 g
  KIDNEY_R: 1.6 g
  KIDNEY_TOTAL: 3.1 g
  LIVER: 17.7 g
